Experimental findings from ChEMBL document CHEMBL1201862, “PubChem BioAssay data set” (2004) are described below.

Test systems include SK-MEL-2; Malme-3M; MDA-MB-231; PC-3; RPMI-8226; SN12C; SNB-19; OVCAR-5; TK-10; CAKI-1; ACHN; MCF7; SK-OV-3; SK-MEL-28; CCRF-CEM; MDA-MB-435; RXF 393; IGROV-1; SR.
Experiment in all cases: growth of human tumour cells (NCI), 48 h

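All cell lines were grown in 96-well plates and treated with compound for 48 hours. GI50 marks 50% less growth.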 Active and inactive are the calls of the source. Rule as the data show it: active = GI50 up to about 1.1 µM and inactive = higher.

On to `O=C(O)C(Cc1ccc(O)c([N+](=O)[O-])c1)N1C(=O)c2ccccc2C1=O` (stereo not given), for which the GI50 in the experiment with SK-MEL-2, in the experiment on Malme-3M, in the experiment on MDA-MB-231, in the experiment with PC-3, with RPMI-8226 and in the experiment on SN12C was > 100 µM (inactive) each time. Further, the GI50 with SNB-19, with OVCAR-5, in the experiment with TK-10, in the experiment on CAKI-1, in the experiment with ACHN and in the experiment on MCF7 was > 100 µM (inactive) each time. The GI50 in the experiment on SK-OV-3, in the experiment with SK-MEL-28, in the experiment with CCRF-CEM, in the experiment on MDA-MB-435, in the experiment on RXF 393 and with IGROV-1 was > 100 µM (inactive) throughout. In addition, in the experiment on SR, the GI50 was > 100 µM (inactive).
On to `O=C(N/N=C/c1ccc([N+](=O)[O-])cc1)Nc1ccc(Br)cc1`, for which the GI50 in the experiment with SK-MEL-2 is > 100 µM (inactive); in the experiment on Malme-3M, > 100 µM (inactive); in the experiment with MDA-MB-231, > 100 µM (inactive); in the experiment on PC-3, > 100 µM (inactive); with RPMI-8226, 28.1 µM (inactive); in the experiment with SN12C, 60 µM (inactive). For the same compound, the GI50 is 76.4 µM (inactive) in the experiment on SNB-19; > 100 µM (inactive) with OVCAR-5; > 100 µM (inactive) with TK-10; 83.6 µM (inactive) with CAKI-1; 60.7 µM (inactive) in the experiment with ACHN; 34 µM (inactive) with MCF7. Further, the GI50 with SK-OV-3 is 68.2 µM (inactive); in the experiment with SK-MEL-28, > 100 µM (inactive); in the experiment on CCRF-CEM, 23.4 µM (inactive); in the experiment with MDA-MB-435 it was 32.6 µM (inactive); in the experiment on RXF 393, > 100 µM (inactive); with IGROV-1, 55.5 µM (inactive). Moreover, in the experiment with SR, the GI50 is 43.2 µM (inactive).
As to `C=C(C)C1CC=C(C)C2(C1)OCC(C)(C)C(C)O2` (stereo not given), the GI50 in the experiment with SK-MEL-2 is 17.8 µM (inactive); with Malme-3M, 14.5 µM (inactive); with MDA-MB-231 it was 21.7 µM (inactive); in the experiment on PC-3, 30.1 µM (inactive); in the experiment on RPMI-8226, 17.9 µM (inactive); in the experiment with SN12C, 18.2 µM (inactive). The GI50 was 18.3 µM (inactive) in the experiment with SNB-19; 19.3 µM (inactive) with OVCAR-5; 47.4 µM (inactive) with TK-10; 16.3 µM (inactive) in the experiment with CAKI-1; 18.3 µM (inactive) in the experiment on ACHN; 17.1 µM (inactive) in the experiment on MCF7. Moreover, the GI50 with SK-OV-3 was 23.4 µM (inactive); with SK-MEL-28, 24 µM (inactive); in the experiment on CCRF-CEM, 24.7 µM (inactive); in the experiment on MDA-MB-435 it was 21.3 µM (inactive); in the experiment on RXF 393, 13.7 µM (inactive); with IGROV-1, 22.9 µM (inactive). Further, the GI50 in the experiment with SR was 18.2 µM (inactive).
As for `COC(=O)C1Cc2cccc(C)c2C1` (stereo not given), the GI50 is > 100 µM (inactive) with SK-MEL-2; > 100 µM (inactive) with Malme-3M; > 100 µM (inactive) with MDA-MB-231; > 100 µM (inactive) with PC-3; 93.5 µM (inactive) in the experiment with RPMI-8226; > 100 µM (inactive) in the experiment with SN12C. Besides, the GI50 is > 100 µM (inactive) with SNB-19; > 100 µM (inactive) with OVCAR-5; > 100 µM (inactive) in the experiment on TK-10; > 100 µM (inactive) in the experiment with CAKI-1; > 100 µM (inactive) in the experiment with ACHN; 19.1 µM (inactive) in the experiment with MCF7. The GI50 was > 100 µM (inactive) with SK-OV-3; > 100 µM (inactive) in the experiment on SK-MEL-28; 66.5 µM (inactive) with CCRF-CEM; > 100 µM (inactive) with MDA-MB-435; > 100 µM (inactive) in the experiment on RXF 393; > 100 µM (inactive) with IGROV-1. Also, the GI50 in the experiment on SR was 79.3 µM (inactive).
As for `COc1cccc(OC)c1/C=C1\OC(=O)c2cccc(OC)c21`, the GI50 with SK-MEL-2 is 4.14 µM (inactive); with Malme-3M, 3.42 µM (inactive); in the experiment on MDA-MB-231, 12.8 µM (inactive); with PC-3 it was 4.72 µM (inactive); in the experiment with RPMI-8226, 3.46 µM (inactive); with SN12C it was 20 µM (inactive). Also, the GI50 is 4.74 µM (inactive) in the experiment on SNB-19; 13.2 µM (inactive) in the experiment on OVCAR-5; 11.5 µM (inactive) in the experiment with TK-10; 4.68 µM (inactive) in the experiment on CAKI-1; 8.59 µM (inactive) in the experiment with ACHN; 3.14 µM (inactive) with MCF7. Moreover, the GI50 in the experiment on SK-OV-3 is 5.2 µM (inactive); in the experiment with SK-MEL-28 it was 6.7 µM (inactive); in the experiment with CCRF-CEM, 3.84 µM (inactive); with MDA-MB-435, 0.526 µM (active); in the experiment on RXF 393, 4.61 µM (inactive); with IGROV-1, 4.71 µM (inactive). For the same compound, in the experiment with SR, the GI50 is 0.92 µM (active).
Take `O=C(N/N=C/c1ccc([N+](=O)[O-])cc1)Nc1ccc(C(=O)O)cc1`: the GI50 with SK-MEL-2 is 25 µM (inactive); in the experiment with Malme-3M it was 53 µM (inactive); in the experiment on MDA-MB-231, 28.6 µM (inactive); in the experiment with PC-3, 32.1 µM (inactive); in the experiment with RPMI-8226, 18.7 µM (inactive); with SN12C, 29.9 µM (inactive). Besides, the GI50 in the experiment with SNB-19 was 38.6 µM (inactive); with OVCAR-5, 40.6 µM (inactive); in the experiment on TK-10 it was 34.4 µM (inactive); in the experiment with CAKI-1, 28.2 µM (inactive); in the experiment on ACHN, 26.7 µM (inactive); in the experiment with MCF7, 27.4 µM (inactive). Also, the GI50 in the experiment with SK-OV-3 is 21.3 µM (inactive); in the experiment on SK-MEL-28, 41.7 µM (inactive); with CCRF-CEM, 30.6 µM (inactive); with MDA-MB-435 it was 29 µM (inactive); with RXF 393 it was 26.1 µM (inactive); with IGROV-1, 33.1 µM (inactive). Besides, in the experiment with SR, the GI50 was 43.5 µM (inactive).
As for `CC1=C(C(=O)Nc2cccc3c2C(=O)NC3=O)CC(C(=O)Nc2cccc3c2C(=O)NC3=O)=C(C)N1`, the GI50 in the experiment with SK-MEL-2, in the experiment with Malme-3M, in the experiment with MDA-MB-231, with PC-3, with RPMI-8226 and in the experiment on SN12C was > 100 µM (inactive) each time. Also, the GI50 with SNB-19, in the experiment on OVCAR-5, with TK-10, with CAKI-1, in the experiment with ACHN and in the experiment with MCF7 was > 100 µM (inactive) each time. In addition, the GI50 in the experiment on SK-OV-3, in the experiment on SK-MEL-28, in the experiment on CCRF-CEM, with MDA-MB-435, in the experiment with RXF 393 and in the experiment on IGROV-1 was > 100 µM (inactive) throughout. Further, in the experiment with SR, the GI50 is > 100 µM (inactive).
Consider `CCOC(=O)N/N=C(\CC)NO`, for which the GI50 in the experiment on SK-MEL-2, in the experiment on Malme-3M, with MDA-MB-231, in the experiment with PC-3, with RPMI-8226 and with SN12C was > 100 µM (inactive) each time. Moreover, the GI50 with SNB-19, in the experiment with OVCAR-5, in the experiment on TK-10, in the experiment on CAKI-1, with ACHN and with MCF7 was > 100 µM (inactive) in each case. Besides, the GI50 in the experiment with SK-OV-3, in the experiment on SK-MEL-28, with CCRF-CEM, in the experiment with MDA-MB-435, with RXF 393 and in the experiment with IGROV-1 was > 100 µM (inactive) each time. Besides, in the experiment on SR, the GI50 was > 100 µM (inactive).
As for `O=C1Nc2cccc3cc(NCC(O)CCl)cc1c23` (stereo not given), the GI50 with SK-MEL-2 was 21.5 µM (inactive); in the experiment with Malme-3M, 88.1 µM (inactive); in the experiment with MDA-MB-231, > 100 µM (inactive); with PC-3 it was 38.8 µM (inactive); in the experiment on RPMI-8226, > 100 µM (inactive); with SN12C, 41.8 µM (inactive). Moreover, the GI50 in the experiment with SNB-19 was 53.6 µM (inactive); in the experiment on OVCAR-5, > 100 µM (inactive); in the experiment on TK-10, 75.5 µM (inactive); in the experiment on CAKI-1, 35.2 µM (inactive); with ACHN, 30.3 µM (inactive); in the experiment with MCF7, 45.7 µM (inactive). The GI50 is 28.6 µM (inactive) in the experiment on SK-OV-3; > 100 µM (inactive) in the experiment with SK-MEL-28; 22.2 µM (inactive) in the experiment on CCRF-CEM; 54.2 µM (inactive) with MDA-MB-435; 76.9 µM (inactive) in the experiment with RXF 393; 59 µM (inactive) in the experiment on IGROV-1. The GI50 in the experiment with SR was 11.7 µM (inactive).
Regarding `C=CCN(C(C)=O)c1cc(OCc2ccccc2)c2c(c1)c(C)cn2S(=O)(=O)c1ccccc1`, the GI50 in the experiment with SK-MEL-2 is 3.11 µM (inactive); with Malme-3M, 6.58 µM (inactive); with MDA-MB-231 it was 6.98 µM (inactive); in the experiment with PC-3, 4.21 µM (inactive); in the experiment on RPMI-8226, 2.47 µM (inactive); with SN12C it was 5.52 µM (inactive). For the same compound, the GI50 with SNB-19 was 7.08 µM (inactive); with OVCAR-5, 11.8 µM (inactive); in the experiment with TK-10 it was 39.6 µM (inactive); in the experiment on CAKI-1, 6.59 µM (inactive); in the experiment on ACHN, 4.36 µM (inactive); in the experiment on MCF7 it was 3.93 µM (inactive). The GI50 with SK-OV-3 was 16.1 µM (inactive); with SK-MEL-28, 21.2 µM (inactive); in the experiment on CCRF-CEM, 4.11 µM (inactive); with MDA-MB-435 it was 5.11 µM (inactive); in the experiment with RXF 393 it was 4.74 µM (inactive); with IGROV-1 it was 10 µM (inactive). In the experiment with SR, the GI50 is 0.0566 µM (active).
